The subject of assay [1] is Rat cortical neurons. Briefly: Total neurite network (length of MAP-2 positive neurite) after Aβ1-42 intoxication. The assay is classed as cell-based. The method, then: (§1) Rat cortical neurons are cultured as described by Callizot et al., (2013) with modifications. Briefly pregnant female rat (Wistar) of 15 days of gestation are killed. Foetuses are collected and immediately placed in ice-cold L15 Leibovitz medium with a 2% penicillin (10,000 U/mL) and streptomycin (10 mg/ml) solution (PS) and 1% bovine serum albumin (BSA). Cortex are treated for 20 min at 37° C. with a trypsin- EDTA solution at a final concentration of 0.05% trypsin and 0.02% EDTA. The dissociation is stopped by addition of Dulbecco's modified Eagle's medium (DMEM) with 4.5 g/L of glucose, containing DNAse I grade II (final concentration 0.5 mg/ml) and 10% fetal calf serum (FCS). Cells are mechanically dissociated by three forced passages through the tip of a 10-ml pipette. Cells are then centrifuged at 515×g for 10 min at 4° C. The supernatant is discarded, and the pellet is resuspended in a defined culture medium consisting of Neurobasal medium with a 2% solution of B27 supplement, 2 mmol/litter of L-glutamine, 2% of PS solution, 10 ng/mL of brain-derived neurotrophic factor (BDNF), 2% of heat-inactivated horse serum, 2% of heat-inactivated FCS, 1 g/L of glucose, 1 mM of sodium pyruvate, and 100 μM of non-essential amino acids. Viable cells are counted in a Neubauer cytometer, using the trypan blue exclusion test. The cells are seeded at a density of 45,000 per well in 96-well plates (for immunostaining) precoated with poly-L-lysine and are cultured at 37° C. in an air (95%)-CO2 (5%) incubator. For 96 wells plates, only 60 wells are used. The wells of first and last lines and columns are not used (to avoid the edge effect) and are filled with sterile water. The medium is changed every 2 days.
(§2) On day 10 of culture, queuine is dissolved in the culture medium and pre-incubated with primary cortical neurons for 24H, before Aβ1-42 exposure. Then on day 11 of culture, the cortical neurons are intoxicated with AB solutions. The Aβ1-42 preparation is done following the procedure described by Callizot et al., (2013). Briefly, Aβ1-42 peptide are dissolved in the defined culture medium mentioned above, at an initial concentration of 40 μmol/L. This solution is gently agitated for 3 days at 37° C. in the dark and immediately used after being properly diluted in culture medium to the concentration used (5 μM, 0.5μM oligomers). […]
(§3) Each compound is tested on 1 culture in a 96 well plate (6 wells per conditions). […] The following conditions are assessed:
(§4) 72 hours after Aβ1-42 application, the cell culture supernatant are collected cytokine quantification (e.g. TNFα) and the cortical neurons are fixed by a cold solution of ethanol (95%) and acetic acid (5%) for 5 min at −20° C. […]

Another assay has as its system TNF-α. Briefly: TNFa release in a culture of cortical neurons and microglia after Aβ1-42 injury (ELISA). The assay is classed as cell-based, rat. The following applies: for TNFa (% of vehicle group): control 100.00, Aβ1-42 alone 126.75; for level of TNFα (in words): Aβ1-42 (5 μM). As to the method: as §1
(§5) On day 10 of culture, queuine is dissolved in the culture medium and pre-incubated with primary cortical neurons for 24H, before Aβ1-42 exposure. Then on day 11 of culture, the cortical neurons are intoxicated with AB solutions. The Aβ1-42 preparation is done following the procedure described by Callizot et al., (2013). Briefly, Aβ1-42 peptide are dissolved in the defined culture medium mentioned above, at an initial concentration of 40 μmol/L. This solution is gently agitated for 3 days at 37° C. in the dark and immediately used after being properly diluted in culture medium to the concentration used (5 μM, 0.5μM oligomers).
(§6) Aβ1-42 preparation is added to a final concentration of 5μM (0.5 μM oligomers, ABO) diluted in control medium in presence of queuine, for 72 hours.
72 hours after Aβ1-42 application, the cell culture supernatant are collected cytokine quantification (e.g. TNFα) and the cortical neurons are fixed by a cold solution of ethanol (95%) and acetic acid (5%) for 5 min at −20° C. After permeabilization with 0.1% of saponin, cells are incubated for 2 hours with: • a) chicken polyclonal antibody antimicrotubule-associated-protein 2 (MAP-2) at dilution of 1/1000 in PBS containing 1% fetal calf serum and 0.1% of saponin (this antibody stains specifically cell bodies and neurites, allowing study of neuronal cell death and neurite network). • b) mouse monoclonal anti-tau phosphor (Thr212, Ser214) at the dilution of 1/100 in PBS containing 1% foetal calf serum and 0.1% of saponin. • c) rabbit polyclonal antibody anti-SIRP alpha/CD172a at dilution of 1/400 in PBS containing 1% fetal calf serum and 0.1% of saponin (this antibody stains specifically the microglia and is allow to evaluate the activation of the microglial cells).
In order to assess the activation of microglia in the cell culture, the levels of TNF-α are quantified in cell culture supernatant after 72h (end of the culture) by ELISA.
In general terms: ELISA stands for enzyme-linked immunosorbent assay.

Assay [2] concerns Rat cortical neurons. Briefly: Neuron survival (number of MAP-2 positive neurons) after Aβ1-42 intoxication. The assay is classed as cell-based. The following applies: for survival of neurons: p<0.05. The method, then: as §1, §2, §3, §4
A further assay deals with Tau. Briefly: Hyperphosphorylation of Tau in neuron cytoplasm (AT100, overlapping Tau/MAP-2) after Aβ1-42 intoxication. It counts as cell-based, rat. As to the method:
as §1, §5, §6
Each compound is tested on 1 culture in a 96 well plate (6 wells per conditions). For 96 wells plates, only 60 wells are used. The wells of first and last lines and columns are not used (to avoid the edge effect) and are filled with sterile water. Queuine is added 24h before Aβ1-42 application. The following conditions are assessed:
as §4

Where [3] appears, read: queuine 300 nM added 24h before Aβ1-42 (5 μM, 72 H), p<0.05.
Where [4] appears, read: queuine 1 μM added 24h before Aβ1-42 (5 μM, 72 H), p<0.05.
[5] abbreviates: queuine 3 μM added 24h before Aβ1-42 (5 μM, 72 H), p<0.05.
The mark [6] stands for this setting: BDNF 50 ng/ml, Aβ1-42 (5 μM, 72 H).

Regarding “7-(3,4-trans-4,5-cis-dihydroxy-1-cyclopenten-3-ylaminomethyl)-7-deazaguanine [queuine]”, the neurite network result with Rat cortical neurons [1] (setting [3]), in the assay with Rat cortical neurons [1] (setting [4]) and in the assay with Rat cortical neurons [1] (setting [5]) was “significantly restores the neurite network” in each case. Moreover, the “TNFa (% of vehicle group)” value with TNF-α (Aβ1-42 (5 μM, 72 H) + queuine (300 nM)) is on record as 105.54 % of vehicle group; in the assay with TNF-α (Aβ1-42 (5 μM, 72 H) + queuine (1 μM)) it was 87.33 % of vehicle group; in the assay on TNF-α (Aβ1-42 (5 μM, 72 H) + queuine (3 μM)), 93.32 % of vehicle group. Further, the “level of TNFα (in words)” value in the assay on TNF-α (queuine 300 nM, p<0.05) was “restores the level of TNFα”; with TNF-α (queuine 1 μM, p<0.05), “restores the level of TNFα”; in the assay with TNF-α (queuine 3 μM, p<0.05), “restores the level of TNFα”. Besides, the survival of neurons result in the assay on Rat cortical neurons [2] (queuine 100 nM added 24h before Aβ1-42 (5 μM, 72 H)) is on record as “significantly restores the survival of neurons”; in the assay with Rat cortical neurons [2] (queuine 300 nM added 24h before Aβ1-42 (5 μM, 72 H)), “significantly restores the survival of neurons”; in the assay on Rat cortical neurons [2] (queuine 1 μM added 24h before Aβ1-42 (5 μM, 72 H)) it was “significantly restores the survival of neurons”. In addition, the Tau hyperphosphorylation entry in the assay with Tau (queuine 100 nM added 24h before Aβ1-42 (5 μM, 72 H), p<0.05) is “restores the level of hyperphosphorylation of Tau”; with Tau (setting [3]), “restores the level of hyperphosphorylation of Tau”; with Tau (setting [4]), “restores the level of hyperphosphorylation of Tau”; in the assay with Tau (setting [5]), “restores the level of hyperphosphorylation of Tau”.

B1: BDNF: brain-derived neurotrophic factor, used at 50 ng/ml as positive control and reference compound (protein, UniProt P23560 19-247, looked up)
Neurotrophic factor BDNF …: APMKEANIRGQGGLAYPGVRTHGTLESVNGPKAGSRGLTSLADTFEHVIEELLDEDQKVRPNEENNKDADLYTSRVMLSSQVPLEPPLLFLLEEYKNYLDAANMSMRVRRHSDPARRGELSVCDSISEWVTAADKKTAVDMSGGTVTVLEKVPVSKGQLKQYFYETKCNPMGYTKEGCRGIDKRHWNSQCRTTQSYVRALTMDSKKRIGWRFIRIDTSCVCTLTIKRGR
Regarding B1, the neurite network result with Rat cortical neurons [1] (setting [6]) is “restores the neurite network”. Moreover, the “TNFa (% of vehicle group)” value in the assay with TNF-α (Aβ1-42 (5 μM, 72 H) + BDNF (50 ng/ml)) was 102.14 % of vehicle group. Further, in the assay with TNF-α (BDNF 50 ng/ml), the “level of TNFα (in words)” value is “decreases the level of TNFα”. Besides, in the assay with Rat cortical neurons [2] (setting [6]), the “level neuronal staining for MAP-2 (number of cortical neurons)” value is listed as “restores the level neuronal staining for MAP-2”. Further, the Tau hyperphosphorylation entry in the assay with Tau (setting [6]) is “decreases Tau hyperphosphorylation”.

Values taken from patent US20210052589A1, “COMPOUNDS FOR TREATING ALZHEIMER'S DISEASE” (Amabiotics, priority 2018, published 2021).
